Reference: article PMC11954305, “Generate what you can make: achieving in-house synthesizability with readily available resources in de novo drug design” (Journal of Cheminformatics, 2025)

What follows are molecules tested against T1, monoglyceride lipase (MGLL) (Homo sapiens, UniProt Q99685) (assay: natural substrate assay, residual MGLL activity). Conditions: enzyme preparation and conditions only in Supplementary section D.
T1 construct: enzyme source only in Supplementary section D
T1 sequence (Q99685 1-303): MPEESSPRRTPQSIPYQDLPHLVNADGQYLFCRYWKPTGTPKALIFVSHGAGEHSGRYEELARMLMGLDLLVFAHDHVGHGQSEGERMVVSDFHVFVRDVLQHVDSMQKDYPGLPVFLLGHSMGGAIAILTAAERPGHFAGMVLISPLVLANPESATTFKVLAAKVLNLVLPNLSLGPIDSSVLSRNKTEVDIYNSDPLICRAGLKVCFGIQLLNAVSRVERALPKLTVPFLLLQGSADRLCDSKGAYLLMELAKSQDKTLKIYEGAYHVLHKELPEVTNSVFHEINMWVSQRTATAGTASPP

Structure (SMILES) | IC50 [µM]
O=C(OC(C(F)(F)F)C(F)(F)F)N1CCN(C2CCCCC2)CC1 [compound 1, Compound 1] | 1
O=C(N1CCCC(c2ccc(F)cc2)C1)n1nnc2ccccc21 (stereo not drawn) [compound 2] | ~100
O=C(c1nccs1)N1CCN(C(c2ccccc2)c2ccccc2)CC1 [compound 3] | ~100
